# Test results taken from patent US20210127673A1, “HERBICIDES” (SYNGENTA PARTICIPATIONS AG, priority 2016, published 2021).
# Experiments:
# Format in all cases: in vivo
# [1] = system: Abutilon theophrasti (ABUTH); experiment: Pre-emergence herbicidal activity, Abutilon theophrasti; set-up: key: 5=total damage to plant; 0=no damage to plant; conditions: 1000 g/ha, evaluated after 13 days, Test 1b
# Method: (§1) Seeds of a variety of test species were sown in standard soil in pots: Triticum aestivium (TRZAW), Avena fatua (AVEFA), Alopecurus myosuroides (ALOMY), Echinochloa crus-galli (ECHCG), Lolium perenne (LOLPE), Zea Mays (ZEAMX), Abutilon theophrasti (ABUTH), Amaranthus retroflexus (AMARE) and Setaria faberi (SETFA). After cultivation for one day (pre-emergence) under controlled conditions in a glasshouse (at 24/16° C., day/night; 14 hours light; 65% humidity), the plants were sprayed with an aqueous spray solution derived from the formulation of the technical active ingredient in acetone/water (50:50) solution containing 0.5% Tween 20 (polyoxyethelyene sorbitan monolaurate, CAS RN 9005-64-5). The test plants were then grown in a glasshouse under controlled conditions (at 24/16°, day/night; 14 hours light; 65% humidity) and watered twice daily. After 13 days, the test was evaluated (5=total damage to plant; 0=no damage to plant).
# [2] = system: Amaranthus retroflexus (AMARE); experiment: Pre-emergence herbicidal activity, Amaranthus retroflexus; set-up: key: 5=total damage to plant; 0=no damage to plant; conditions: 1000 g/ha, evaluated after 13 days, Test 1b
# Method: as §1
# Lolium perenne (LOLPE) [3] = experiment: Post-emergence herbicidal activity, Lolium perenne; conditions: 1000 g/ha, evaluated after 13 days, Test 2b
# In short: (§2)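 Pot-grown plants in standard soil were sprayed 8 days after sowing with active ingredient in acetone/water (50:50) containing 0.5% Tween 20. Glasshouse at 24/16 °C day/night, 14 h light, 65% humidity, watered twice daily. Damage scored after 13 days on 0 (none) to 5 (total) scale.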
# [4] = system: Abutilon theophrasti (ABUTH); experiment: Post-emergence herbicidal activity, Abutilon theophrasti; set-up: key: 5=total damage to plant; 0=no damage to plant; conditions: 1000 g/ha, evaluated after 13 days, Test 2b
# Method: (§3) Seeds of a variety of test species were sown in standard soil in pots: Triticum aestivium (TRZAW), Avena fatua (AVEFA), Alopecurus myosuroides (ALOMY), Echinochloa crus-galli (ECHCG), Lolium perenne (LOLPE), Zea Mays (ZEAMX), Abutilon theophrasti (ABUTH), Amaranthus retroflexus (AMARE) and Setaria faberi (SETFA). After 8 days cultivation (post-emergence) under controlled conditions in a glasshouse (at 24/16° C., day/night; 14 hours light; 65% humidity), the plants were sprayed with an aqueous spray solution derived from the formulation of the technical active ingredient in acetone/water (50:50) solution containing 0.5% Tween 20 (polyoxyethelyene sorbitan monolaurate, CAS RN 9005-64-5). The test plants were then grown in a glasshouse under controlled conditions (at 24/16° C., day/night; 14 hours light; 65% humidity) and watered twice daily. After 13 days, the test was evaluated (5=total damage to plant; 0=no damage to plant).
# [5] = system: Amaranthus retroflexus (AMARE); experiment: Post-emergence herbicidal activity, Amaranthus retroflexus; set-up: key: 5=total damage to plant; 0=no damage to plant; conditions: 1000 g/ha, evaluated after 13 days, Test 2b
# Method: as §3
# Setaria faberi (SETFA) [6] = experiment: Pre-emergence herbicidal activity, Setaria faberi; set-up: key: 5=total damage to plant; 0=no damage to plant; conditions: 1000 g/ha, evaluated after 13 days, Test 1b
# In short: (§4)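 Damage is rated on a 0–5 scale (0 = no damage, 5 = total damage) 13 days after treatment. Pots of sown seed are sprayed one day after sowing with an aqueous solution from acetone/water (50:50) with 0.5% Tween 20, then kept under controlled glasshouse conditions.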
# Setaria faberi (SETFA) [7] = experiment: Post-emergence herbicidal activity, Setaria faberi; set-up: key: 5=total damage to plant; 0=no damage to plant; conditions: 1000 g/ha, evaluated after 13 days, Test 2b
# In short: as §2
# Zea Mays (ZEAMX) [8] = experiment: Post-emergence herbicidal activity, Zea Mays; set-up: key: 5=total damage to plant; 0=no damage to plant; conditions: 1000 g/ha, evaluated after 13 days, Test 2b
# Method: as §3
# Zea Mays (ZEAMX) [9] = experiment: Pre-emergence herbicidal activity, Zea Mays; set-up: key: 5=total damage to plant; 0=no damage to plant; conditions: 1000 g/ha, evaluated after 13 days, Test 1b
# Method: as §1
# [10] = system: Echinochloa crus-galli (ECHCG); experiment: Post-emergence herbicidal activity, Echinochloa crus-galli; set-up: key: 5=total damage to plant; 0=no damage to plant; conditions: 1000 g/ha, evaluated after 13 days, Test 2b
# In short: as §2
# [11] = system: Echinochloa crus-galli (ECHCG); experiment: Pre-emergence herbicidal activity, Echinochloa crus-galli; set-up: key: 5=total damage to plant; 0=no damage to plant; conditions: 1000 g/ha, evaluated after 13 days, Test 1b
# In short: as §4
# Lolium perenne (LOLPE) [12] = experiment: Pre-emergence herbicidal activity, Lolium perenne; set-up: key: 5=total damage to plant; 0=no damage to plant; conditions: 1000 g/ha, evaluated after 13 days, Test 1b
# In short: as §4
SMILES,ABUTH damage score (0-5) [1],AMARE damage score (0-5) [2],LOLPE damage score (0-5) (Lolium perenne (LOLPE) [3]),ABUTH damage score (0-5) [4],AMARE damage score (0-5) [5],SETFA damage score (0-5) (Setaria faberi (SETFA) [6]),SETFA damage score (0-5) (Setaria faberi (SETFA) [7]),ZEAMX damage score (0-5) (Zea Mays (ZEAMX) [8]),ZEAMX damage score (0-5) (Zea Mays (ZEAMX) [9]),ECHCG damage score (0-5) [10],ECHCG damage score (0-5) [11],LOLPE damage score (0-5) (Lolium perenne (LOLPE) [12])
"CCOC(=O)Nc1ccc(-c2cncc(F)c2)nc1C(F)(F)F [Compound B15, ethyl N-[6-(5-fluoro-3-pyridyl)-2-(trifluoromethyl)-3-pyridyl]carbamate]",0,0,2,0,1,4,4,5,4,3,1,0
CCN(C(=O)OC(C)(C)C)c1ccc(-c2cncc(F)c2)nc1C(F)(F)F [Compound B14],4,0,1,0,0,0,4,4,0,2,0,0
CN(C(=O)OC(C)(C)C)c1ccc(-c2cccnc2)nc1C(F)(F)F [Compound B22],1,1,3,0,0,4,4,2,0,4,3,1
"CC(C)(C)OC(=O)Nc1ccc(-c2cncc(F)c2)nc1C(F)(F)F [Compound B30, tert-butyl N-[6-(5-fluoro-3-pyridyl)-2-(trifluoromethyl)-3-pyridyl]carbamate]",0,2,4,0,0,4,5,5,5,5,3,1
Cc1nc(-c2cncnc2)ccc1NC(=O)OC(C)(C)C [Compound B28],0,0,4,0,0,2,4,5,3,4,2,1
Cc1nc(-c2cncc(C#N)c2)ccc1NC(=O)OC(C)(C)C [Compound B20],0,1,3,0,1,4,5,4,5,4,5,1
